The target of this assay is T1, Human TRPC6 (Homo sapiens, UniProt Q9Y210).
T1 construct: expressed in transfected cells
T1 sequence (Q9Y210 1-931): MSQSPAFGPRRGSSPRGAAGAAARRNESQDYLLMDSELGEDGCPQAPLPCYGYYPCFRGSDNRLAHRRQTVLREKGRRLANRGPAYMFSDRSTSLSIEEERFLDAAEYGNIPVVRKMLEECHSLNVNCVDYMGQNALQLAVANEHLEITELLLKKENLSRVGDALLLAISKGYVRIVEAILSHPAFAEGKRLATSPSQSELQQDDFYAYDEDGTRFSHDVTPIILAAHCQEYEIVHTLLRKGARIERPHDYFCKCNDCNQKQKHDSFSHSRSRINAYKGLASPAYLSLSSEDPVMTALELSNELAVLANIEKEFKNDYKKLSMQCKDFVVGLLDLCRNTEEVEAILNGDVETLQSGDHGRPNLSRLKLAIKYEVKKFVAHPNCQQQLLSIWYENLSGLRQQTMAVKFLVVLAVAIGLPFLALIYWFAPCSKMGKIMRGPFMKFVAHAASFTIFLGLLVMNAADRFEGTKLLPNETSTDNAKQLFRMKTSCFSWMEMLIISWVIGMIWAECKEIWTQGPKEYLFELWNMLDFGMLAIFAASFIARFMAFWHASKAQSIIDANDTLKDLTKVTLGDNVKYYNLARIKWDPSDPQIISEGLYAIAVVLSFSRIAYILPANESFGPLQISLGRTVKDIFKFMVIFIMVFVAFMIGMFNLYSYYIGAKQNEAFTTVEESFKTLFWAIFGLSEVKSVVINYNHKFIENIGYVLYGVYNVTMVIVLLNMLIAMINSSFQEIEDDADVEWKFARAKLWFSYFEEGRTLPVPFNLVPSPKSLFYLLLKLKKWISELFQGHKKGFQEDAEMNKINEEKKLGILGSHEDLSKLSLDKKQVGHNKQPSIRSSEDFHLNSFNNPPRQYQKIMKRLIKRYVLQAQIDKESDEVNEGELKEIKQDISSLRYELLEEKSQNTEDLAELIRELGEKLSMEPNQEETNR
Briefly: Evaluation of TRPC6 channel inhibitory activity (1), FLIPR Calcium 5 Assay Kit, OAG stimulation (Compound Nos. 1-1293). Format: cell-based. The settings on record: Human TRPC6 stably-expressing cells, OAG 30 μM, FLIPR Calcium 5 Assay Kit; read-out: Inhibitory activity (pIC50 class) (converted). In outline: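 Cells stably expressing human TRPC6, plated 24 h before, were loaded 30 min with Calcium 5 dye plus probenecid in HEPES-HBSS. Compound was added 20 min before OAG (30 μM final) and fluorescence tracked on FLIPR. Inhibition normalised to no-compound and no-compound/no-OAG wells; pIC50 from four-parameter fit, reported as +/++/+++ categories.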
Take `CC(C)Cn1cc(Cc2cc(C#N)ccc2-c2ncc(CCN)cn2)cn1` [Compound No. 1195, 4-[5-(2-Aminoethyl)pyrimidin-2-yl]-3-[[1-(2-methylpropyl)pyrazol-4-yl]methyl]benzonitrile]: the IC50 was less than 10 nM.

Turning to `CC(C)n1nc(-c2ccccc2)cc1Oc1cc(C#N)ccc1-c1ncc(CCN)cn1` [compound 381, 4-[5-(2-aminoethyl)pyrimidin-2-yl]-3-(5-phenyl-2-propan-2-ylpyrazol-3-yl)oxybenzonitrile], the IC50 is less than 10 nM.

On to `Cc1cc(Oc2cc(C#N)ccc2-c2ccc(OCCN)cn2)n(C)n1` [compound 349, 4-[5-(2-aminoethoxy)pyridin-2-yl]-3-(2,5-dimethylpyrazol-3-yl)oxybenzonitrile], for which the IC50 was greater than 1000 nM.

On to `Cc1nc(Oc2cc(C#N)ccc2-c2ncc(CN)cn2)cc(N(C)CC2CC2)n1` [compound 796, 4-[5-(aminomethyl)pyrimidin-2-yl]-3-[6-[cyclopropylmethyl(methyl)amino]-2-methylpyrimidin-4-yl]oxybenzonitrile], for which the IC50 is 10 to 1000 nM.

Take `Cc1nn(C(C)C)c(C)c1Oc1cc(C#N)ccc1-c1ncc(CCN)cn1` [compound 942, 4-[5-(2-aminoethyl)pyrimidin-2-yl]-3-(3,5-dimethyl-1-propan-2-ylpyrazol-4-yl)oxybenzonitrile]: the IC50 is greater than 1000 nM.

Regarding `Cc1nn(C2CCCCC2)cc1Oc1cc(C#N)ccc1-c1ncc(CCN)cn1` [compound 864, 4-[5-(2-aminoethyl)pyrimidin-2-yl]-3-(1-cyclohexyl-3-methylpyrazol-4-yl)oxybenzonitrile], the IC50 is 10 to 1000 nM.

`Cn1nc(-c2cscn2)cc1Oc1cc(C#N)ccc1-c1ncc(CCN)cn1` [compound 952, 4-[5-(2-aminoethyl)pyrimidin-2-yl]-3-[2-methyl-5-(1,3-thiazol-4-yl)pyrazol-3-yl]oxybenzonitrile]: the IC50 was less than 10 nM.

In the case of `CC(C)Cn1cc(Cc2cc(F)ccc2-c2ccc(CCN)cn2)cn1` [compound 1221, 2-[6-[4-fluoro-2-[[1-(2-methylpropyl)pyrazol-4-yl]methyl]phenyl]pyridin-3-yl]ethanamine], the IC50 was 10 to 1000 nM.

For the compound `Cc1cc(C(=O)c2cc(C#N)ccc2-c2ncc(CCN)cn2)cc(N2CCOCC2)n1` [Compound No. 1042, 4-[5-(2-Aminoethyl)pyrimidin-2-yl]-3-(2-methyl-6-morpholin-4-ylpyridine-4-carbonyl)benzonitrile], the IC50 was less than 10 nM.

Regarding `Cc1cc(Oc2cc(C#N)ccc2-c2ccnc(OCCN)c2)cc(N2CCOCC2)n1` [compound 567, 4-[2-(2-aminoethoxy)pyridin-4-yl]-3-(2-methyl-6-morpholin-4-ylpyridin-4-yl)oxybenzonitrile], the IC50 is 10 to 1000 nM.

In the case of `N#Cc1ccc(-n2cc(CCN)cn2)c(Sc2cnnc(N3CCCCC3)c2)c1` [Compound No. 1246, 4-[4-(2-Aminoethyl)pyrazol-1-yl]-3-(6-piperidin-1-ylpyridazin-4-yl)sulfanylbenzonitrile], the IC50 was 10 to 1000 nM.

As to `Cc1ccc(-c2cc(Oc3cc(C#N)ccc3-c3ccc(C(O)CN)cc3)n(C)n2)nc1` (stereo not drawn) [Compound 180, 4-[4-(2-amino-1-hydroxyethyl)phenyl]-3-[2-methyl-5-(5-methylpyridin-2-yl)pyrazol-3-yl]oxybenzonitrile], the IC50 was less than 10 nM.

Consider `N#Cc1ccc(-c2ccc(CCN)cc2)c(Sc2cnnc(N3CCCCC3)c2)c1` [Compound No. 1240, 4-[4-(2-Aminoethyl)phenyl]-3-(6-piperidin-1-ylpyridazin-4-yl)sulfanylbenzonitrile], for which the IC50 was less than 10 nM.

Regarding `Cc1nc(Oc2cc(C#N)ccc2-n2cc([C@@H](O)CNCC#N)cn2)cc(-c2ccccc2)n1` [Compound 279, 4-[4-[(1R)-2-(cyanomethylamino)-1-hydroxyethyl]pyrazol-1-yl]-3-(2-methyl-6-phenylpyrimidin-4-yl)oxybenzonitrile], the IC50 was greater than 1000 nM.

For the compound `Cn1nc(C2CC2)cc1Oc1cc(C#N)ccc1-c1cccn2c(C[C@H](N)C(=O)O)nnc12` (stereo in doubt) [compound 581, 2-amino-3-[8-[4-cyano-2-(5-cyclopropyl-2-methylpyrazol-3-yl)oxyphenyl]-[1,2,4]triazolo[4,3-a]pyridin-3-yl]propanoic acid], the IC50 is greater than 1000 nM.

Turning to `Cn1nc(C2CC2)cc1Oc1cc(C#N)ccc1-c1cc(C(=O)N2CCNCC2)ccn1` [compound 552, 3-(5-cyclopropyl-2-methylpyrazol-3-yl)oxy-4-[4-(piperazine-1-carbonyl)pyridin-2-yl]benzonitrile], the IC50 was greater than 1000 nM.

Regarding `Cc1nc(NC2CCOCC2)cc(Oc2cc(C#N)ccc2-c2ncc(CN)cn2)n1` [compound 635, 4-[5-(aminomethyl)pyrimidin-2-yl]-3-[2-methyl-6-(oxan-4 ylamino)pyrimidin-4-yl]oxybenzonitrile], the IC50 was greater than 1000 nM.

On to `Cc1nc(Oc2cc(C#N)ccc2-n2cc([C@@H](O)CN)cn2)cc(-c2ccccn2)n1` [compound 352, 4-[4-[(1R)-2-amino-1-hydroxyethyl]pyrazol-1-yl]-3-(2-methyl-6-pyridin-2-ylpyrimidin-4-yl)oxybenzonitrile], for which the IC50 is 10 to 1000 nM.

On to `Cc1cc(Oc2cc(C#N)ccc2-c2ncc(CCN)cn2)cc(N2CC(F)C2)n1` [compound 503, 4-[5-(2-aminoethyl)pyrimidin-2-yl]-3-[2-(3-fluoroazetidin-1-yl)-6-methylpyridin-4-yl]oxybenzonitrile], for which the IC50 was less than 10 nM.

On to `Cc1nc(Oc2cc(C#N)ccc2-c2ncc(CCN)cn2)cc(N2C=NCCC2)n1` [compound 881, 4-[5-(2-aminoethyl)pyrimidin-2-yl]-3-[6-(5,6-dihydro-4H-pyrimidin-1-yl)-2-methylpyrimidin-4-yl]oxybenzonitrile], for which the IC50 was greater than 1000 nM.

Take `COC(c1cc(-c2ccccc2)no1)c1cc(C#N)ccc1-c1ccc(CCN)cc1` (stereo not drawn) [compound 1231, 4-[4-(2-aminoethyl)phenyl]-3-[methoxy-(3-phenyl-1,2-oxazol-5-yl)methyl]benzonitrile]: the IC50 is 10 to 1000 nM.

Take `Cn1nc(-c2ccccc2)cc1Oc1cc(C#N)ccc1-c1ccc(C(O)C(C)(C)N)cn1` (stereo not drawn) [compound 301, 4-[5-(2-amino-1-hydroxy-2-methylpropyl)pyridin-2-yl]-3-(2-methyl-5-phenylpyrazol-3-yl)oxybenzonitrile]: the IC50 was less than 10 nM.

On to `Cc1nc(Oc2cc(C#N)ccc2-n2ncc3c2CCC(N)C3O)cc(-c2ccccc2)n1` (stereo not drawn) [Compound 192, 4-(5-amino-4-hydroxy-4,5,6,7-tetrahydroindazol-1-yl)-3-(2-methyl-6-phenylpyrimidin-4-yl)oxybenzonitrile], for which the IC50 was 10 to 1000 nM.

As to `Cn1nc(C2CC2)cc1Oc1cc(C#N)ccc1-c1ccc(C(N)C#N)cn1` (stereo not drawn) [compound 422, 4-[5-[amino(cyano)methyl]pyridin-2-yl]-3-(5-cyclopropyl-2-methylpyrazol-3-yl)oxybenzonitrile], the IC50 was 10 to 1000 nM.

Consider `Cc1nc(Oc2cc(C#N)ccc2-c2ccc(C(O)CN(C)C)cc2)cc(N2CCOCC2)n1` (stereo not drawn) [Compound 106, 4-[4-[2-(dimethylamino)-1-hydroxyethyl]phenyl]-3-(2-methyl-6-morpholin-4-ylpyrimidin-4-yl)oxybenzonitrile], for which the IC50 was greater than 1000 nM.

As to `N#Cc1ccc(-c2ccc(CCN)cc2)c(Oc2cnnc(N3CCCCC3)c2)c1` [Compound 66, 4-[4-(2-aminoethyl)phenyl]-3-(6-piperidin-1-ylpyridazin-4-yl)oxybenzonitrile], the IC50 is less than 10 nM.

For the compound `Cn1nc(C2CCCO2)cc1Oc1cc(C#N)ccc1-c1ncc(CCN)cn1` (stereo not drawn) [compound 483, 4-[5-(2-aminoethyl)pyrimidin-2-yl]-3-[2-methyl-5-(oxolan-2-yl)pyrazol-3-yl]oxybenzonitrile], the IC50 was less than 10 nM.

Turning to `Cn1nc(N2CCCC2)cc1Cc1cc(C#N)ccc1-c1ncc(CN)cn1` [compound 1210, 4-[5-(aminomethyl)pyrimidin-2-yl]-3-[(2-methyl-5-pyrrolidin-1-ylpyrazol-3-yl)methyl]benzonitrile], the IC50 was less than 10 nM.

On to `NCCc1cnc(-c2ccc(F)cc2C(=O)c2cnn(C3CCC3)c2)nc1` [compound 1108, [2-[5-(2-aminoethyl)pyrimidin-2-yl]-5-fluorophenyl]-(1-cyclobutylpyrazol-4-yl)methanone], for which the IC50 is 10 to 1000 nM.

Take `Cn1nc(C2CC2)cc1Oc1cc(C#N)ccc1-c1cc(C(=O)N2CCC[C@H](N)C2)ccn1` [compound 555, 4-[4-[(3S)-3-aminopiperidine-1-carbonyl]pyridin-2-yl]-3-(5-cyclopropyl-2-methylpyrazol-3-yl)oxybenzonitrile]: the IC50 was greater than 1000 nM.

For the origin of these results see US20230167073A1 (Teijin Pharma Limited, priority 2020, published 2023).
